Like-named read-outs stand apart in the source and are kept apart here.
Experiments:
[1] = biological target: full-length human PRMT1 isoform 1 (GST-tagged) (Homo sapiens, UniProt Q99873); assay: PRMT1 Biochemical Assay (3H-SAM Flashplate, peptide substrate)
Source text: General Materials. S-adenosylmethionine (SAM), S-adenosylhomocysteine (SAH), bicine, Tween20, dimethylsulfoxide (DMSO), bovine skin gelatin (BSG), and Tris(2-carboxyethyl)phosphine hydrochloride solution (TCEP) were purchased from Sigma-Aldrich at the highest level of purity possible. ^3H-SAM was purchase from American Radiolabeled Chemicals with a specific activity of 80 Ci/mmol. 384-well streptavidin Flashplates were purchased from PerkinElmer.
Protein Expression. Recombinant baculovirus were generated according to Bac-to-Bac kit instructions (Life Technologies). […] Infections were carried out at 27° C. for 48 hours, harvested by centrifugation, and stored at −80° C. for purification.
Protein Purification. […] GST-tagged PRMT1 was eluted with 50 mM Tris, 2 mM glutathione, pH 7.8, dialysed in buffer A and concentrated to 1 mg/mL.
General Procedure for PRMT1 Enzyme Assays on Peptide Substrates. The assays were all performed in a buffer consisting of 20 mM Bicine (pH=7.6), 1 mM TCEP, 0.005% BSG, and 0.002% Tween 20, prepared on the day of use. […] DMSO (1 ul) was added to Columns 11, 12, 23, 24, rows A-H for the maximum signal control and 1 ul of SAH, a known product and inhibitor of PRMT1, was added to columns 11, 12, 23, 24, rows I-P for the minimum signal control. A cocktail (40 ul) containing the PRMT1 enzyme was added by Multidrop Combi (Thermo-Fisher). The compounds were allowed to incubate with PRMT1 for 30 min at room temperature, then a cocktail (10 ul) containing SAM and peptide was added to initiate the reaction (final volume=51 ul). […] The assays were stopped by the addition of non-radiolabeled SAM (10 ul) to a final concentration of 300 uM, which dilutes the ^3H-SAM to a level where its incorporation into the peptide substrate is no longer detectable. 50 ul of the reaction in the 384-well polypropylene plate was then transferred to a 384-well Flashplate and the biotinylated peptides were allowed to bind to the streptavidin surface for at least 1 hour before being washed once with 0.1% Tween20 in a Biotek ELx405 plate washer. The plates were then read in a PerkinElmer TopCount plate reader to measure the quantity of ^3H-labeled peptide bound to the Flashplate surface, measured as disintegrations per minute (dpm) or alternatively, referred to as counts per minute (cpm).
Where dpm=disintegrations per minute, cmpd=signal in assay well, and min and max are the respective minimum and maximum signal controls.
Where top and bottom are the normally allowed to float, but may be fixed at 100 or 0 respectively in a 3-parameter fit. The Hill Coefficient normally allowed to float but may also be fixed at 1 in a 3-parameter fit. Y is the % inhibition and X is the compound concentration.

[2] = system: mono-methyl arginine in RKO cells; assay: RKO Methylation Assay, In Cell Western (ICW) for detection of mono-methyl arginine and DNA content; assay type: cell-based; details: Homo sapiens, RKO, 72 h, RKO cells, read-out: In Cell Western EC30
Source text: RKO adherent cells were purchased from ATCC (American Type Culture Collection), Manassas, Va., USA. DMEM/Glutamax medium, penicillin-streptomycin, heat inactivated fetal bovine serum, 0.05% trypsin and D-PBS were purchased from Life Technologies, Grand Island, N.Y., USA. Odyssey blocking buffer, 800 CW goat anti-rabbit IgG (H+L) antibody, and Licor Odyssey infrared scanner were purchased from Licor Biosciences, Lincoln, Nebr., USA. Mono-methyl arginine antibody was purchased from Cell Signaling Technology, Danvers, Mass., USA. Methanol was purchased from VWR, Franklin, Mass., USA. 10% Tween 20 was purchased from KPL, Inc., Gaithersburg, Md., USA. DRAQ5 was purchased from Biostatus Limited, Leicestershire, UK.
RKO adherent cells were maintained in growth medium (DMEM/Glutamax medium supplemented with 10% v/v heat inactivated fetal bovine serum and 100 units/mL penicillin-streptomycin) and cultured at 37° C. under 5% CO2.
Cell treatment, In Cell Western (ICW) for detection of mono-methyl arginine and DNA content. […] Compound (100 nL) from a 96-well source plate was added directly to 384 well cell plate. Plates were incubated at 37° C., 5% CO2 for 72 hours. After three days of incubation, plates were brought to room temperature outside of the incubator for ten minutes and blotted on paper towels to remove cell media. 50 μL of ice cold 100% methanol was added directly to each well and incubated for 30 min at room temperature. After 30 min, plates were transferred to a Biotek EL406 plate washer and washed 2 times with 100 μL per well of wash buffer (1×PBS). Next 60 μL per well of Odyssey blocking buffer (Odyssey Buffer with 0.1% Tween 20 (v/v)) were added to each plate and incubated 1 hour at room temperature. Blocking buffer was removed and 20 μL per well of primary antibody was added (mono-methyl arginine diluted 1:200 in Odyssey buffer with 0.1% Tween 20 (v/v)) and plates were incubated overnight (16 hours) at 4° C. Plates were washed 5 times with 100 μL per well of wash buffer. […] The plates were washed 5 times with 100 μL per well wash buffer then 2 times with 100 μL per well of water. Plates were allowed to dry at room temperature then imaged on the Licor Odyssey machine which measures integrated intensity at 700 nm and 800 nm wavelengths. Both 700 and 800 channels were scanned.
Calculations: First, the ratio for each well was determined by:
Each plate included fourteen control wells of DMSO only treatment (minimum activation) as well as fourteen control wells for maximum activation treated with 20 μM of a reference compound. The average of the ratio values for each control type was calculated and used to determine the percent activation for each test well in the plate. Reference compound was serially diluted three-fold in DMSO for a total of nine test concentrations, beginning at 20 μM. Percent activation was determined and EC30 curves were generated using triplicate wells per concentration of compound.

[3] = single experiment or average of multiple experiments
[4] = 72 hours compound incubation, mono-methyl arginine signal normalised to DNA content (DRAQ5), percent activation vs 20 μM reference compound
[5] = 72 hours incubation, mono-methyl arginine signal normalised to DNA content, single experiment or average of multiple experiments

Sequence of full-length human PRMT1 isoform 1 (GST-tagged) (Q99873 with tags, fused parts or gaps): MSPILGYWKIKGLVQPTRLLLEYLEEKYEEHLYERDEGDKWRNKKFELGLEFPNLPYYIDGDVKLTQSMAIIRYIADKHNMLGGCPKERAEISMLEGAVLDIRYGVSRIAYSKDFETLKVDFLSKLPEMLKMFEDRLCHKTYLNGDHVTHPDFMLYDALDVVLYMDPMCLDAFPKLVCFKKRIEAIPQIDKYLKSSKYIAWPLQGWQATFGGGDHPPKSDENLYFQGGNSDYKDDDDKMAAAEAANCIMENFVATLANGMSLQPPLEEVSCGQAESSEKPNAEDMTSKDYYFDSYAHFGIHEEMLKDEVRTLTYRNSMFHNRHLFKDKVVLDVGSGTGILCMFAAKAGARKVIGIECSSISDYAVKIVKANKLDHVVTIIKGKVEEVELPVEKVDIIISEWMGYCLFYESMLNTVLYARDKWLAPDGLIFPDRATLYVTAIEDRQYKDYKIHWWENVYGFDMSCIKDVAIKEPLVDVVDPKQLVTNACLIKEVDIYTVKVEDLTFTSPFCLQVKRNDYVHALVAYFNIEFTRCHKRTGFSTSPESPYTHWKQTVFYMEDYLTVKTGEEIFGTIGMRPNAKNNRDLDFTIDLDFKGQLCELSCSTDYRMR

Row | Structure (SMILES) | IC50 [1] | IC50 [1, 3] | EC30 [2, 4] | EC30 [2, 5]
1 | CNCCN(C)Cc1c[nH]nc1[C@H]1CC[C@H](OCCOc2ccccc2)CC1 [Compound 187] | 101 to 1000 nM | 193 nM | 3010 to 12000 nM | 3160 nM
2 | CNCCN(C)Cc1c[nH]nc1C1CCC(CCOC)(CCOC)CC1 [Compound 174] | < 100 nM | 15.5 nM | < 3000 nM | 85 nM
3 | CCOC1CC(OCC)CC2(CCC(c3n[nH]cc3CN(C)CCNC)CC2)C1 (stereo not shown) [Compound 159] | < 100 nM | 19.7 nM | < 3000 nM | 63 nM
4 | CNCCN(C)Cc1c[nH]nc1C1CCC2(CC1)NC(=O)NC2=O (stereo not shown) [Compound 175] | < 100 nM | 13.3 nM | > 12000 nM | > 20000 nM
5 | CCOC1CC(OCC)CC(c2n[nH]cc2CN(C)CCNC)C1 (stereo not shown) [Compound 132] | 101 to 1000 nM | 626 nM | – | 3.8 nM
6 | CNCCN(C)Cc1c[nH]nc1[C@H]1CC[C@]2(CCN(Cc3ccc(OCCOC)cc3)C2=O)CC1 [Compound 111] | < 100 nM | 22.4 nM | < 3000 nM | 913 nM
7 | CNCCN(C)Cc1c[nH]nc1C1CCC(O)C2(CCCC2)C1 (stereo not shown) [Compound 182, 9-[4-({methyl[2-(methylamino)ethyl]amino}methyl)-1H-pyrazol-3-yl]spiro[4.5]decan-6-ol] | < 100 nM | 11.6 nM | < 3000 nM | 411 nM
8 | CCOC1CC2(CCC(c3n[nH]cc3CN(C)CCNC)CC2)CC1OCC (stereo not shown) [Compound 168] | < 100 nM | 19.8 nM | < 3000 nM | 85 nM
9 | CNCCN(C)Cc1c[nH]nc1[C@H]1CC[C@H](OC2CCCCC2)CC1 [Compound 139] | < 100 nM | 30.5 nM | < 3000 nM | 627 nM
10 | CNCCN(C)Cc1c[nH]nc1[C@H]1CC[C@H](COC)CC1 [Compound 167] | < 100 nM | 11 nM | < 3000 nM | 18 nM
11 | CNCCN(C)Cc1c[nH]nc1C1CCC(=O)N(CCc2ccccc2)C1 (stereo not shown) [Compound 110] | < 100 nM | 13.1 nM | < 3000 nM | 2550 nM
12 | CNCCN(C)Cc1c[nH]nc1C1CCC(=O)N(Cc2ccccc2)C1 (stereo not shown) [Compound 115] | < 100 nM | 88.7 nM | < 3000 nM | 18.9 nM
13 | CCC(=O)N(CC1CCOCC1)[C@H]1CC[C@@H](c2n[nH]cc2CN(C)CCNC)CC1 [Compound 108] | < 100 nM | 61 nM | 3010 to 12000 nM | 8550 nM
14 | CCN1C(=O)N(C)CC12CCC(c1n[nH]cc1CN(C)CCNC)CC2 (stereo not shown) [Compound 162] | < 100 nM | 38.9 nM | 3010 to 12000 nM | 6680 nM
15 | CNCCN(C)Cc1c[nH]nc1C1CCCC(COCCC(O)CO)C1 (stereo not shown) [Compound 113] | < 100 nM | 57.2 nM | 3010 to 12000 nM | 7350 nM
16 | CC[C@H]1CC[C@H](c2n[nH]cc2CN(C)CCNC)CC1 [Compound 148] | < 100 nM | 4.8 nM | < 3000 nM | 16 nM
17 | CNCCN(C)Cc1c[nH]nc1C1CCC(C)(C)C(O)C1 (stereo not shown) [Compound 185, 2,2-dimethyl-5-[4-({methyl[2-(methylamino)ethyl]amino}methyl)-1H-pyrazol-3-yl]cyclohexan-1-ol] | < 100 nM | 14.2 nM | < 3000 nM | 453 nM
18 | CNCCN(C)Cc1c[nH]nc1C1CCC2(CC1)CN(C)C(=O)N2C (stereo not shown) [Compound 172] | < 100 nM | 23 nM | 3010 to 12000 nM | 4460 nM

Continued, in another order:

Row | IC50 [1] | IC50 [1, 3] | Structure (SMILES) | EC30 [2, 4] | EC30 [2, 5]
19 | < 100 nM | 31.5 nM | CNCCN(C)Cc1c[nH]nc1[C@H]1CC[C@]2(CC1)CC(=O)N(CC(C)C)C2 [Compound 155] | 3010 to 12000 nM | 4080 nM
20 | < 100 nM | 5.8 nM | CNCCN(C)Cc1c[nH]nc1C1CCC2(CCOCC2)CC1 [Compound 178] | < 3000 nM | 76 nM
21 | < 100 nM | 21.6 nM | CNCCN(C)Cc1c[nH]nc1C1CCC2(CC1)CC2 [Compound 144] | < 3000 nM | 63 nM
22 | < 100 nM | 21.8 nM | CNCCN(C)Cc1c[nH]nc1C1CCC2(CC1)OCCCO2 [Compound 160] | < 3000 nM | 166 nM
23 | < 100 nM | 23.6 nM | CNCCN(C)Cc1c[nH]nc1[C@H]1CC[C@@]2(CCN(CC(C)C)C2=O)CC1 [Compound 129] | < 3000 nM | 4.5 nM
24 | < 100 nM | 14.2 nM | CNCCN(C)Cc1c[nH]nc1C1CCC2(CC1)CCN(C)C2=O (stereo not shown) [Compound 152] | < 3000 nM | 119 nM
25 | < 100 nM | 10.6 nM | CNCCN(C)Cc1c[nH]nc1[C@H]1CC[C@@]2(CCCO2)CC1 [Compound 143] | < 3000 nM | 59 nM
26 | < 100 nM | 44 nM | CNCCN(C)Cc1c[nH]nc1C1CCC2(CC1)OCC(C(C)C)CO2 (stereo not shown) [Compound 150] | < 3000 nM | 256 nM
27 | < 100 nM | 17.6 nM | CNCCN(C)Cc1c[nH]nc1C1CCC2(CC1)CC(=O)N(CCC(C)C)C2 (stereo not shown) [Compound 165] | < 3000 nM | 510 nM
28 | < 100 nM | 19.7 nM | CNCCN(C)Cc1c[nH]nc1C1CCC2(CC1)CCN(CC(C)C)C2=O (stereo not shown) [Compound 164] | < 3000 nM | 78 nM
29 | < 100 nM | 7.2 nM | CNCCN(C)Cc1c[nH]nc1[C@H]1CC[C@]2(CCOC2)CC1 [Compound 142] | < 3000 nM | 52 nM
30 | < 100 nM | 7.3 nM | CNCCN(C)Cc1c[nH]nc1C1CCC2(CCCCO2)CC1 (stereo not shown) [Compound 137] | < 3000 nM | 15 nM
31 | < 100 nM | 8.04 nM | CNCCN(C)Cc1c[nH]nc1[C@H]1CC[C@]2(CCC(C)(C)O2)CC1 [Compound 104] | < 3000 nM | 11.7 nM
32 | < 100 nM | 26.2 nM | CNCCN(C)Cc1c[nH]nc1C1CCC2(CC1)CN(CC(C)C)C(=O)N2C (stereo not shown) [Compound 145] | < 3000 nM | 2300 nM

Reference: US11512053B2, “Arginine methyltransferase inhibitors and uses thereof” (priority 2013, dated 2022)
